Consider 19 compounds from patent US20230040182A1, “ARYL HETEROBICYCLIC COMPOUNDS AS Kv1.3 POTASSIUM SHAKER CHANNEL BLOCKERS” (priority 2019, published 2023).

Structures are written as SMILES. Where only a bound is given, the exact number is not on record here.

One experiment deals with T1, hERG channel (Homo sapiens, UniProt Q12809).
T1 construct: expressed in transfected cells
Put plainly: hERG electrophysiology, automated whole-cell patch clamp (Patchliner). It is filed as cell-based. The note with it: CHO-K1 cells stably expressing hERG; whole-cell current, Hill fit. The procedure:
Example 10. Evaluation of hERG Activities
This assay is used to evaluate the disclosed compounds' inhibition activities against the hERG channel.
CHO-K1 cells stably expressing hERG were grown in Ham's F-12 Medium with Glutamine containing 10% heat-inactivated FBS, 1% Penicillin/Streptomycin, Hygromycin (100 μg/ml) and G418 (100 μg/ml). Cells were grown in culture flasks at 37° C. in a 5% CO2-humidified incubator.
The cells were bathed in an extracellular solution containing 140 mM NaCl, 4 mM KCl, 2 mM CaCl2), 1 mM MgCl2, 5 mM Glucose, 10 mM HEPES; pH adjusted to 7.4 with NaOH; 295-305 mOsm. The internal solution contained 50 mM KCl, 10 mM NaCl, 60 mM KF, 20 mM EGTA, 10 mM HEPES; pH adjusted to 7.2 with KOH; 285 mOsm. All compounds were dissolved in DMSO at 30 mM. Compound stock solutions were freshly diluted with external solution to concentrations of 30 nM, 100 nM, 300 nM, 1 μM, 3 μM, 10 μM, 30 μM and 100 μM. The highest content of DMSO (0.3%) was present in 100 μM.
The voltage protocol (see Table B) was designed to simulate voltage changes during a cardiac action potential with a 300 ms depolarization to +20 mV (analogous to the plateau phase of the cardiac action potential), a repolarization for 300 ms to −50 mV (inducing a tail current) and a final step to the holding potential of −80 mV. The pulse frequency was 0.3 Hz. Control (compound-free) and compound pulse trains for each compound concentration applied contained 70 pulses.
(§1) Whole-cell current recordings and compound application were enabled by means of an automated patch clamp platform Patchliner (Nanion). EPC 10 patch clamp amplifier (HEKA) along with Patchmaster software (HEKA Elektronik Dr. Schulze GmbH) was used for data acquisition. Data were sampled at 10 kHz without filtering. Increasing compound concentrations were applied consecutively to the same cell without washouts in between.
(§2) AUC and PEAK values were obtained with Patchmaster (HEKA Elektronik Dr. Schulze GmbH). To determine IC50 the last single pulse in the pulse train corresponding to a given compound concentration was used. Obtained AUC and PEAK values in the presence of compound were normalized to control values in the absence of compound. Using Origin (OridinLab), IC50 was derived from data fit to Hill equation: Icompound/Icontrol=(100−A)/(1+([compound]/IC50)nH)+A, where IC50 is the concentration at which current inhibition is half-maximal, [compound] is the applied compound concentration, A is the fraction of current that is not blocked and nH is the Hill coefficient.

A further experiment deals with T2, Kv1.3 potassium channel (Homo sapiens, UniProt P22001).
T2 construct: expressed in transfected cells
Put plainly: Kv1.3 potassium channel blocker activity, automated whole-cell patch clamp (Patchliner). The note with it: CHO-K1 cells stably expressing Kv1.3; whole-cell current, Hill fit. The experiment is classed as cell-based. The procedure: Example 9. Evaluation of Kv1.3 Potassium Channel Blocker Activities
This assay is used to evaluate the disclosed compounds' activities as Kv1.3 potassium channel blockers.
CHO-K1 cells stably expressing Kv1.3 were grown in DMEM containing 10% heat-inactivated FBS, 1 mM Sodium Pyruvate, 2 mM L-Glutamine and G418 (500 μg/ml). Cells were grown in culture flasks at 37° C. in a […] incubator.
The cells were bathed in an extracellular solution containing 140 mM NaCl, 4 mM KCl, 2 mM CaCl2, 1 mM MgCl2, 5 mM Glucose, 10 mM HEPES; pH adjusted to 7.4 with NaOH; 295-305 mOsm. The internal solution contained 50 mM KCl, 10 mM NaCl, 60 mM KF, 20 mM EGTA, 10 mM HEPES; pH adjusted to 7.2 with KOH; 285 mOsm. All compounds were dissolved in DMSO at 30 mM. Compound stock solutions were freshly diluted with external solution to concentrations of 30 nM, 100 nM, 300 nM, 1 μM, 3 μM, 10 μM, 30 μM and 100 μM. The highest content of DMSO (0.3%) was present in 100 μM.
The currents were evoked by applying 100 ms depolarizing pulses from −90 mV (holding potential) to +40 mV were applied with 0.1 Hz frequency. Control (compound-free) and compound pulse trains for each compound concentration applied contained 20 pulses. 10-second breaks were used between pulse trains (see Table A below).
as §1, with “(Nanion Technologies GmbH).” for “(Nanion).”, “(HEKA Elektronik Dr. Schulze GmbH)” for “(HEKA)”, “filtering. Passive leak currents were subtracted online using a P/4 procedure (HEKA Elektronik Dr. Schulze GmbH).” for “filtering.”, “between. Total compound incubation time before the next pulse train was not longer than 10 seconds. Peak current inhibition was observed during compound equilibration.” for “between.”
as §2, with “AUC and peak values were” for “AUC and PEAK values were”, “To determine IC50, the last” for “To determine IC50 the last”, “AUC and peak values in” for “AUC and PEAK values in”, “where IC50 value is the” for “where IC50 is the”

T2 sequence (P22001 whole entry): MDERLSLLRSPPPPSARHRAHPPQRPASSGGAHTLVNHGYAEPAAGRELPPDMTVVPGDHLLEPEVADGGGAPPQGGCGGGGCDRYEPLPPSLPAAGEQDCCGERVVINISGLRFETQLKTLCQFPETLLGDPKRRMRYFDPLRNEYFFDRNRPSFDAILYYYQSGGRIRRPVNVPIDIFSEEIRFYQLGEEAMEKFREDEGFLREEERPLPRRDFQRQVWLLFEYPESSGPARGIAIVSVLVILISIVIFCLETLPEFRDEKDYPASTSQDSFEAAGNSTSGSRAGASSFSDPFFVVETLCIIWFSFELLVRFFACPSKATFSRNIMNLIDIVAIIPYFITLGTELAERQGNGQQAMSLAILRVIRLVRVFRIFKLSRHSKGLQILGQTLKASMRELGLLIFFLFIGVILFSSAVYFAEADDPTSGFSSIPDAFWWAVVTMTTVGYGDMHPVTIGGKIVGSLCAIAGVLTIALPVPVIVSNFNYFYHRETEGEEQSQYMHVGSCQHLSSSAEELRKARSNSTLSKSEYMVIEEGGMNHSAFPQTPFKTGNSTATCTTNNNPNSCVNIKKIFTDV
T1 sequence (Q12809 whole entry): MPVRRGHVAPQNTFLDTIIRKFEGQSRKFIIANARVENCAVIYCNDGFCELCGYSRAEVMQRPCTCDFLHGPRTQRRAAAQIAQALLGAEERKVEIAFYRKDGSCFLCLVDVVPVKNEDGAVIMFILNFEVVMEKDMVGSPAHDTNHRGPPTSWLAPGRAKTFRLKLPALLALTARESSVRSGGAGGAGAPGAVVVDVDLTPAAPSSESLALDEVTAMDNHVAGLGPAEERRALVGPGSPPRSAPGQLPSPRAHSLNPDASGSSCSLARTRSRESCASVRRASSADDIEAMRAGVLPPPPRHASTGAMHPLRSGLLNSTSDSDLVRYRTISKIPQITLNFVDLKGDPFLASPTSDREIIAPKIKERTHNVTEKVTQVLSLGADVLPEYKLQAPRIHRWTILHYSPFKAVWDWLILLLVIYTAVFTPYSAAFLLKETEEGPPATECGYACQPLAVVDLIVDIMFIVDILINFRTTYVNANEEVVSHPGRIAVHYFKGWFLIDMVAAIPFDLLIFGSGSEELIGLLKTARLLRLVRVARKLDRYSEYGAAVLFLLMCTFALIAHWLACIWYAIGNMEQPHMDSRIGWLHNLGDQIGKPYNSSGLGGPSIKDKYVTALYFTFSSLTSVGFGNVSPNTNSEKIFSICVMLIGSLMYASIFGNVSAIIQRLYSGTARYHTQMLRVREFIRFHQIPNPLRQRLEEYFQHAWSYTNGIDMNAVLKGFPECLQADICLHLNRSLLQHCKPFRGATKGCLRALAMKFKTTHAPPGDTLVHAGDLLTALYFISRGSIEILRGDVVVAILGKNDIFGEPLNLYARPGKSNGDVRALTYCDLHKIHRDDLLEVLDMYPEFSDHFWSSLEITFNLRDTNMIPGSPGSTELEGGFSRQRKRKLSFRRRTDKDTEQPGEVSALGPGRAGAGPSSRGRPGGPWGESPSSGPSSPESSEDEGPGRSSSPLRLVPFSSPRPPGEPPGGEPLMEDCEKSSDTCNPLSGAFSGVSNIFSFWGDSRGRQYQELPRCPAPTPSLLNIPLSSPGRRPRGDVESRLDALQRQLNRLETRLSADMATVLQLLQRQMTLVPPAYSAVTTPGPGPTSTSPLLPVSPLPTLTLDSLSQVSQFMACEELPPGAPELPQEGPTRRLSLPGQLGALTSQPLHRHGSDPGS

For `O=C1[C@@H]2C[C@H](c3c(O)ccc(Cl)c3Cl)CCN2C(=O)CN1CCO` (relative stereo) [Compound 7, (8R,9aS)-rel-8-(2,3-dichloro-6-hydroxyphenyl)-2-(2-hydroxyethyl)hexahydro-4H-pyrido[1,2-a]pyrazine-1,4(6H)-dione], the IC50 at hERG channel is over 30 µM; on Kv1.3 potassium channel it was under 1 µM.

For `O=C1[C@H]2C[C@H](c3c(O)ccc(Cl)c3Cl)CCN2C(=O)CN1CCO` (relative stereo) [Compound 18, (8R,9aR)-rel-8-(2,3-dichloro-6-hydroxyphenyl)-2-(2-hydroxyethyl)-hexahydropyrido[1,2-a]pyrazine-1,4-dione], the IC50 was over 30 µM against hERG channel and under 1 µM against Kv1.3 potassium channel.

On Kv1.3 potassium channel, `O=C1[C@@H]2C[C@H](c3c(O)ccc(Cl)c3Cl)CCN2C(=O)[C@H]2CC(O)CCN12` (stereo partly drawn) [Compound 40, (2R,6aR,12aS)-2-(2,3-dichloro-6-hydroxyphenyl)-8-hydroxyoctahydro-dipyrido[1,2-a:1′,2′-d]pyrazine-6,12(2H,6aH)-dione] gave an IC50 of under 1 µM.

As for `CC(C)[C@@H](O)[C@@H]1NC(=O)[C@@H]2C[C@H](c3c(O)ccc(Cl)c3Cl)CCN2C1=O` [Compound 42, (3S,8R,9aS)-8-(2,3-dichloro-6-hydroxyphenyl)-3-[(1R)-1-hydroxy-2-methylpropyl]-hexahydro-2H-pyrido[1,2-a]pyrazine-1,4-dione], the IC50 against Kv1.3 potassium channel was under 1 µM. Consider `O=C1[C@@H]2C[C@@H](O)CN2C(=O)[C@@H]2C[C@H](c3c(O)ccc(Cl)c3Cl)CCN12` [Compound 43, (2R,5aS,7R,11aS)-7-(2,3-dichloro-6-hydroxyphenyl)-2-hydroxyhexahydro-1H-pyrido[1,2-a]pyrrolo[1,2-d]pyrazine-5,11(5aH,11aH)-dione], for which, at Kv1.3 potassium channel, the IC50 is under 10 µM.

With `O=C1N[C@@H](CO)C(=O)N2CC[C@H](c3c(O)ccc(Cl)c3Cl)C[C@H]12` [Compound 46, (3S,8S,9aR)-8-(2,3-dichloro-6-hydroxyphenyl)-3-(hydroxymethyl)hexahydro-4H-pyrido[1,2-a]pyrazine-1,4(6H)-dione], the IC50 against Kv1.3 potassium channel was under 10 µM. The same measure, in the same setting: under `CC1(C)NC(=O)C2CC(c3c(O)ccc(Cl)c3Cl)CCN2C1=O` (stereo not drawn) [Compound 47, 8-(2,3-dichloro-6-hydroxyphenyl)-3,3-dimethyl-octahydro-1H-pyrido[1,2-a]pyrazine-1,4-dione] stands under 10 µM. Same read-out and setting: the value for `CC(C)[C@H]1NC(=O)[C@H]2C[C@@H](c3c(O)ccc(Cl)c3Cl)CCN2C1=O` [Compound 48, (8S,9aR)-8-(2,3-dichloro-6-hydroxyphenyl)-3-(3R)-isopropyl-hexahydro-2H-pyrido[1,2-a]pyrazine-1,4-dione] was under 10 µM; that for `CC[C@H]1NC(=O)[C@@H]2C[C@H](c3c(O)ccc(Cl)c3Cl)CCN2C1=O` [Compound 51, (8R,9aS)-8-(2,3-dichloro-6-hydroxyphenyl)-3-(3R)-ethyl-hexahydro-2H-pyrido[1,2-a]pyrazine-1,4-dione] was under 30 µM. `CC(C)[C@H]1NC(=O)[C@@H]2C[C@H](c3c(O)ccc(Cl)c3Cl)CCN2C1=O` [Compound 54, (8R,9aS)-8-(2,3-dichloro-6-hydroxyphenyl)-3-(3R)-isopropyl-hexahydro-2H-pyrido[1,2-a]pyrazine-1,4-dione] registered an IC50 on Kv1.3 potassium channel of under 1 µM. `O=C1NCC(=O)N2CC[C@H](c3c(O)ccc(Cl)c3Cl)C[C@H]12` [Compound 56, (8S,9aR)-8-(2,3-dichloro-6-hydroxyphenyl)hexahydro-4H-pyrido[1,2-a]pyrazine-1,4(6H)-dione]: the half-maximal inhibitory concentration (IC50) at Kv1.3 potassium channel is under 10 µM. For the compound `O=C1N[C@H](CO)C(=O)N2CC[C@H](c3c(O)ccc(Cl)c3Cl)C[C@H]12` [Compound 57, (3R,8S,9aR)-8-(2,3-dichloro-6-hydroxyphenyl)-3-(hydroxymethyl)hexahydro-4H-pyrido[1,2-a]pyrazine-1,4(6H)-dione], the IC50 against Kv1.3 potassium channel is under 10 µM. On the same count and under the same terms, the value for `O=C1[C@H]2C[C@@H](O)CN2C(=O)[C@H]2C[C@@H](c3c(O)ccc(Cl)c3Cl)CCN12` [Compound 59, (2R,5aR,7S,11aR)-7-(2,3-dichloro-6-hydroxyphenyl)-2-hydroxyhexahydro-1H-pyrido[1,2-a]pyrrolo[1,2-d]pyrazine-5,11(5aH,11aH)-dione] was under 10 µM; that for `CC(C)[C@H](O)[C@H]1NC(=O)[C@H]2C[C@@H](c3c(O)ccc(Cl)c3Cl)CCN2C1=O` [Compound 61, (3R,8S,9aR)-8-(2,3-dichloro-6-hydroxyphenyl)-3-[(1S)-1-hydroxy-2-methylpropyl]-hexahydro-2H-pyrido[1,2-a]pyrazine-1,4-dione] was under 10 µM. `C[C@H]1NC(=O)[C@H]2C[C@@H](c3c(O)ccc(Cl)c3Cl)CCN2C1=O` [Compound 62, (3R,8S,9aR)-8-(2,3-dichloro-6-hydroxyphenyl)-3-methyl-hexahydro-2H-pyrido[1,2-a]pyrazine-1,4-dione] gave a half-inhibitory concentration (IC50) against Kv1.3 potassium channel of under 10 µM. On the same count and under the same terms, the value for `O=C1N[C@H](CCO)C(=O)N2CC[C@H](c3c(O)ccc(Cl)c3Cl)C[C@H]12` [Compound 63, (3R,8S,9aR)-8-(2,3-dichloro-6-hydroxyphenyl)-3-(2-hydroxyethyl)-hexahydro-2H-pyrido[1,2-a]pyrazine-1,4-dione] was under 30 µM; that for `O=C1N[C@H](CO)C(=O)N2CC[C@H](c3c(O)cc(Cl)c(Cl)c3Cl)C[C@H]12` [Compound 66, (8S,9aR)3-((3R)-hydroxymethyl)-8-(2,3,4-trichloro-6-hydroxyphenyl)-hexahydro-2H-pyrido[1,2-a]pyrazine-1,4-dione] was under 10 µM. Same read-out and setting: the value for `C[C@H](O)[C@H]1NC(=O)[C@H]2C[C@@H](c3c(O)ccc(Cl)c3Cl)CCN2C1=O` [Compound 67, (3R,8S,9aR)-8-(2,3-dichloro-6-hydroxyphenyl)-3-[(1S)-1-hydroxyethyl]-hexahydro-2H-pyrido[1,2-a]pyrazine-1,4-dione] was under 10 µM; that for `O=C1N[C@H](CCO)C(=O)N2CC[C@@H](c3c(O)ccc(Cl)c3Cl)C[C@@H]12` [Compound 70, (3R,8R,9aS)-8-(2,3-dichloro-6-hydroxyphenyl)-3-(2-hydroxyethyl)-hexahydro-2H-pyrido[1,2-a]pyrazine-1,4-dione] was under 1 µM.
